Data reported in patent US12667584B2, “Adenosine analog and its use in regulating the circadian clock” (NATIONAL INSTITUTE OF BIOLOGICAL SCIENCES, BEIJING, priority 2017, dated 2026).
Entries after “also recorded” stand apart in the source; their conditions may differ.

Legend:
SCN culture slice = assay: Ex vivo SCN slice culture from Per2::LUC mice, lumicycle; type: cell-based, mouse
Excerpt: Tissue culture, drug treatment and Real-Time Monitoring of Circadian Oscillations: 8 week-old male mPer2 Luciferase knockin mice were Sacrificed cervical dislocation. Then wipe the skin and neck with cotton containing 70% ethanol in a sterile hood. For SCN slice culture, firstly remove the eye balls from the head with scissors, decapitate and cut the skin. Then open the skull, remove all bone until the olfactory bulbs can be seen, cut the optic nerve between the olfactory bulbs and the hemispheres, and finally harvest the whole brain into ice cold HBSS. Trim the brain in HBSS by removing the cerebellum and olfactory bulbs. Attach the brain to a sample tray by glue with the rostral tip upwards and ventral surface closest to the cutting blade, then immediately fill the tray with ice cold HBSS and set the tray to the vibratome. Set the vibratome frequency at the maximum and the speed to the medium. To reach the SCN area quickly, the start cutting off thicker sections should be 500-800 μm. Reduce the sections thicker to 100 μm when the optic chiasm becomes wider. When the two SCN nuclei start to appear, collect the slice with transfer pipettes and check slices under dissecting microscope. […] Data was extract and analyzed with LumiCycle Analysis software. […]

core clock genes = assay: qPCR of pre-mRNA of core clock genes in liver; type: in vivo, mouse; conditions: 15 mg/kg, 1 h after treatment
Protocol: Total RNA Extraction and pre-mRNA Analysis: Total RNA from liver was extracted 1 h after treatment of either DMSO or 15 mg/kg bw with QIAGEN Rneasy Mini Kit (74104, Qiagen), then digested with RNase-Free DNase Set (79254, Qiagen) to remove DNA residual. 500 ng total was reverse transcripted into cDNA with PrimeScript™ RT Master Mix (Takara, RR036A). To compare pre-mRNA levels, equal amount of cDNA RNA from DMSO and CA03 treated samples were analyzed using SYBR Green Master Mix (Kapa Biosystems, KP-KK4601) on a BioRad CFX96 instrument. Each gene was analyzed with multiple primers across the whole gene, and the amplification products were either intronic or across an intron-exon junction. Only primers with good melt-curve were used. For quantification, gene expression in DMSO treated sample was used as control, the relative genes expression in CA03 treated sample calculated by the comparative Ct Method.
Next, the inventors sought to determine whether the clock effects of cordycepin can be recaptured in vivo. […] Mice were intraperitoneally (i.p.) injected with the cordycepin at ZT4 (ZT, zeitgeber time; ZT0 starts light-on, and ZT12 begins light-off). […] This observation is especially true when nascent RNA levels were measured, highlighting the first-order, inductive response in E-box genes as previously proposed(FIG. 2B). […]

SMILES: Nc1ncnc2c1ncn2[C@@H]1O[C@H](CO)C[C@H]1O [Cordycepin, 3′-deoxy-adenosine]
- clock phase of SCN slice (SCN culture slice): significant phase-shift with lower amplitude; also recorded: totally antiphase
- E-box gene transcription (pre-mRNA, liver) (core clock genes): activate
- RRE gene and internal control gene transcription (pre-mRNA, liver) (core clock genes): repress
